Source: PubChem BioAssay (NCI)
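All cell lines were grown in 96-well plates and treated with compound for 48 hours. TGI denotes the concentration required for complete inhibition of growth.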

Legend:
Assay in all cases: inhibition of tumour cell growth, NCI panel, 48 h
MALME-3M melanoma = tested on: MALME-3M melanoma
UACC-62 melanoma = tested on: UACC-62 melanoma
SK-MEL-28 melanoma = tested on: SK-MEL-28 melanoma
CCRF-CEM leukemia = tested on: CCRF-CEM leukemia
HOP-62 NSCLC = tested on: HOP-62 NSCLC
NCI-H23 lung = tested on: NCI-H23 lung
NCI-H460 lung = tested on: NCI-H460 lung
HCC-2998 colon = tested on: HCC-2998 colon
NCI-H226 lung = tested on: NCI-H226 lung
SNB-19 CNS = tested on: SNB-19 CNS
SW-620 colon = tested on: SW-620 colon
SF-268 CNS = tested on: SF-268 CNS
CAKI-1 renal = tested on: CAKI-1 renal
SR leukemia = tested on: SR leukemia
NCI-H522 lung = tested on: NCI-H522 lung
SF-295 CNS = tested on: SF-295 CNS
ACHN renal = tested on: ACHN renal
OVCAR-4 ovarian = tested on: OVCAR-4 ovarian
HCT-116 colon = tested on: HCT-116 colon
UACC-257 melanoma = tested on: UACC-257 melanoma

Structure (SMILES) | TGI (MALME-3M melanoma) [µM] | TGI (UACC-62 melanoma) [µM] | TGI (SK-MEL-28 melanoma) [µM] | TGI (CCRF-CEM leukemia) [µM] | TGI (HOP-62 NSCLC) [µM] | TGI (NCI-H23 lung) [µM] | TGI (NCI-H460 lung) [µM] | TGI (HCC-2998 colon) [µM] | TGI (NCI-H226 lung) [µM] | TGI (SNB-19 CNS) [µM] | TGI (SW-620 colon) [µM] | TGI (SF-268 CNS) [µM] | TGI (CAKI-1 renal) [µM] | TGI (SR leukemia) [µM] | TGI (NCI-H522 lung) [µM] | TGI (SF-295 CNS) [µM] | TGI (ACHN renal) [µM] | TGI (OVCAR-4 ovarian) [µM] | TGI (HCT-116 colon) [µM] | TGI (UACC-257 melanoma) [µM]
CCN(CCO)C(=O)C1(c2ccccc2)CCCCC1 | > 10 | > 10 | > 10 | > 10 | > 10 | > 10 | > 10 | > 10 | > 10 | > 10 | > 10 | > 10 | > 10 | > 10 | > 10 | > 10 | > 10 | > 10 | > 10 | –
COc1ccc(CC2CCc3nc(N)nc(N)c3C2)cc1OC (stereo unspecified) | 23.2 | > 36.9 | > 100 | – | > 100 | > 50 | > 48.6 | > 47 | 42.4 | > 89 | > 100 | > 29 | > 100 | > 100 | 12.6 | > 41.4 | > 63.1 | > 100 | > 100 | > 54.4
CCCCC(=O)c1ccc2ccccc2c1O | – | > 100 | > 100 | > 100 | > 100 | > 100 | > 100 | > 100 | > 100 | > 100 | > 100 | > 100 | > 100 | > 100 | – | > 100 | > 100 | > 100 | > 100 | > 100
CC(CCC(=O)O)(c1ccc(O)cc1)c1ccc(O)cc1 | > 100 | > 100 | > 100 | – | > 100 | > 100 | > 100 | – | > 100 | > 100 | > 100 | > 100 | > 100 | > 100 | > 100 | > 100 | > 100 | > 100 | > 100 | > 100
CCOC(=O)NC(=O)c1cn(CCNCCO)c(=O)[nH]c1=O | > 100 | > 100 | – | > 100 | > 100 | > 100 | > 100 | – | > 100 | > 100 | > 100 | > 100 | > 100 | > 100 | > 100 | > 100 | > 100 | > 100 | > 100 | –
CN1CCN(c2ccc3[nH]c(-c4cc(O)c5c(nc(CO)n5C)c4O)nc3n2)CC1 | 65.4 | 27.8 | > 100 | 58.6 | > 100 | > 100 | > 100 | > 100 | 96.5 | > 100 | > 100 | > 100 | > 100 | – | > 100 | > 100 | > 100 | > 100 | > 100 | > 100
O=C(N/N=C/C=C/c1ccccc1)[C@H](O)[C@@H](O)C(=O)N/N=C/C=C/c1ccccc1 | > 100 | > 100 | > 100 | > 100 | – | > 100 | > 100 | > 100 | – | > 100 | > 100 | > 100 | – | > 100 | > 100 | > 100 | > 100 | – | > 100 | > 100
[Cl-].[Rh+3].c1cnc2c(c1)ccc1cccnc12.c1cnc2c(c1)ccc1cccnc12.c1cnc2c(c1)ccc1cccnc12 | > 100 | > 100 | – | > 100 | > 100 | > 100 | > 100 | > 100 | – | – | > 100 | – | – | > 100 | > 100 | > 100 | > 100 | > 100 | > 100 | 92.5
